According to patent US10307406B2, “Methods and compositions for re-activating Epstein-Barr virus and screening compounds therefor” (The Wistar Institute of Anatomy and Biology, priority 2013, dated 2019):
Like-named read-outs stand apart in the source and are kept apart here.

Columns and labels:
Mutul-Hp-Luc cells [1] = assay: microbe, parasite or virus in culture; format: cell-based, Epstein-Barr Virus (EBV)
Text: BHLF1 promoter (Hp) or the BZ1F1 promoter (Zp) was cloned into pHEBO plasmid into Nhel and HindIII restriction sites of pHEBO-luc plasmid (Yates, 1985, Nature, 313:812-815; and Deng, 2001, J. Virol. 75:10334-10347). To create pHEBO-GFP, most of luciferase gene was excised by BsrGI and HindIII sites and replaced with EGFP excised from pEGFP-N1 (Clontech). Mutul cells were transfected with the new pHEBO-Zp-luc, pHEBO-Hp-luc (FIG. 8) or pHEBO-Hp-GFP constructs and transfected cells were selected with 400 μg/mL of Hygromycin. After 2 weeks of selection, stable hygromycin-resistant cells were seeded at 5000 per well in 384 well white plates and assayed as described below.
Columns 1, 2, 23, and 24 received DMSO (0.2% final concentration). The remaining 320 wells in columns 3-22 received test compounds at a final concentration of 10 μM cumulative concentration for the 5 compounds/2 μM individual compound concentration/0.2% final DMSO concentration. Cells were incubated with compounds for 48 h at 37° C./5% CO2. Twenty microliters of Steady-Glo® Luciferase Reagent (Promega) was added to assay plates and incubated for 15 minutes at room temperature. Plates were centrifuged and luminescence was measured on an EnVision® Excite multilabel microplate reader, using the ultrasensitive luminescence measurement technology (Perkin Elmer).
To confirm the activity of candidate compounds identified after deconvolution that exceeded the cutoff parameter, liquid stock from the screening library was retested as single compounds at a final concentration of 10 μM, using assay conditions identical to the primary high-throughput screen.
To eliminate confirmed actives that may interfere with the assay technology by inhibiting luciferase, the activity of the compounds were tested in a biochemical luciferase assay counterscreen (Auld, 2008, J. Med. Chem., 51:2372-2386). To quantitatively assess the activity and prioritize compounds for further follow-up, fresh liquid stocks prepared from powders were reformatted as a 10 point dilution series spanning at least 3-logs, starting at 10 μM, the initial screening concentration. Data for test compounds was normalized to DMSO and NaB (1 mM) plate controls to calculate fold stimulation and z-factor (σ is variance/standard deviations), μ is mean of positive (p) and negative (n) controls). Z-factor is a statistical measurement that assesses the quality of the assay and predicts if the assay can be useful in a high-throughput screening. Z factors above 0.5 are considered acceptable. The screen's Z-factor was above 0.
The relative EC50 for each compound, i.e., the concentration of compound that produced 50% of the maximum effect, was calculated using a […] non-linear regression analysis (GraphPad Prism® 6 software). Error bars represent SD for each concentration of a compound. To assist with decision making points, compound activities were stratified into 4 categories: […]

Mutul cells = assay: cell viability by trypan blue dye exclusion, with or without GCV; format: cell-based; conditions: 6 days, compounds at 1 μM
Procedure: Mutul-Hp-Luc were seeded at 0.2 million per mL and treated with Compound 4. Compound 4 was added again 48 h. Freshly made GCV was added on Day 2 for 4 days twice a day, in the morning and 8 h later. Cell viability was measured either with Resazurin 5 days after the first Compound 4 treatment, or the cells were stained with Trypan blue on Day 6. […] Live cells were counted by the Trypan Blue stain exclusion method. […] Different concentrations of Compound 4 combined with GCV (gray bars) or without GCV (black bars) were used. Cell viability was measured as a percentage of DMSO-treated control cells. 590 nm fluorescence values are proportionate to the cell viability. […] Daily viability assay for Mutul cells treated with either DMSO, NaB, compound 4 (0.5 μM) with or without GCV was measured.
It was tested whether combination of the newly identified activators and GCV would increase selective cell killing of EBV infected cells. […] Specifically, gangcyclovir (GCV) was combined with a sublethal dose of compounds (1 μM) to determine if it could induce cell death in Mutul cells after six days of treatment. Cell viability was measured by trypan blue dye exclusion.

Mutul-Hp-Luc cells [2] = format: cell-based, Epstein-Barr Virus (EBV)
EBV positive Mutul cells = assay: resazurin cytotoxicity assay with or without GCV
Procedure: Mutul-Hp-Luc were seeded at 0.2 million per mL and treated with Compound 4. Compound 4 was added again 48 h. Freshly made GCV was added on Day 2 for 4 days twice a day, in the morning and 8 h later. Cell viability was measured either with Resazurin 5 days after the first Compound 4 treatment, or the cells were stained with Trypan blue on Day 6. […] Live cells were counted by the Trypan Blue stain exclusion method. […] Different concentrations of Compound 4 combined with GCV (gray bars) or without GCV (black bars) were used. Cell viability was measured as a percentage of DMSO-treated control cells. 590 nm fluorescence values are proportionate to the cell viability. Cells tested include EBV-positive Mutul (FIG. 6C), Akata (FIG. 6D), DG75 (FIG. 6E), and Mutu-LCL352 (FIG. 6F). Daily viability assay for Mutul cells treated with either DMSO, NaB, compound 4 (0.5 μM) with or without GCV was measured.
Assay plates were prepared by seeding 25,000 Mutul cells in 50 μL of RPMI supplemented with 15% FBS in 384 well tissue culture plates (Nunc). […] Cells were incubated for 5 days at 37° C./5% CO2 and viability was monitored by the addition of 20 μL of 500 μM resazurin (Sigma) and incubation for 4 h at 37° C. Plates were centrifuged and fluorescence intensity was measured at 590 nm on an Envision® Xcite multilabel microplate reader (Perkin Elmer). […]

[3] = in vivo; cited from earlier work
latent EBV = conditions: cited from earlier work
[4] = system: histone H3 acetylation in Mutul and Mutu-LCL352 cells; assay: immunoblot for acetylation of histone H3; format: cell-based; conditions: 48 h; 2 mM NaB or 1 μM compound
Procedure: (§1) FIGS. 7A-C are gels illustrating the mechanism of EBV reactivation of the compounds in distinct from HDAC inhibitors and TPA. FIG. 7A is Mutul cells treated with 2% DMSO, 2 mM NaB, 20 ng/mL TPA, or 1 μM compound for 48 h, immunoblotted, and probed for acetylation of histone H3 and β-actin. FIG. 7B is Mutu-LCL352 cells treated and probed as in described in FIG. 7A. FIG. 7C is Mutul cells treated with controls or compounds for 0.5 h, immunoblotted, and probed for phosphorylated forms of p90RSK, p53, p38MAPK, S6, total MAPK, and β-actin.
Mutul and Mutu-LCL352 cell lines were used to test whether the newly identified EBV activators function as […] by increasing acetylation on histone H3.

[5] = system: p38 MAPK, S6, p90RSK and p53 phosphorylation in Mutul cells; assay: immunoblot for phosphorylation of p38 MAPK, S6, p90RSK and p53; format: cell-based; conditions: 0.5 h
Procedure: as §1
Cells were incubated with DMSO, 2 mM sodium butyrate (NaB), […] 12-O-tetradecanoyl phorbol-13-acetate (TPA) or 1 μM of compounds for 72 h, washed in PBS once and lysed in 1×Laemmii buffer. Protein extract equivalent to 10^5 cells were loaded on 8-16% SDS-PAGE gels (Invitrogen) and transferred to nitrocellulose membranes (Millipore). Lytic reactivation was detected with a rabbit polyclonal anti-ZTA and mouse monoclonal anti-EA-D (Abcam) antibodies diluted in 5% evaporated milk and incubated with the membranes for 2 h at RT, or overnight at 4° C., followed by secondary anti-mouse or rabbit HRP-conjugated (Roche). Rabbit antibodies against phospho-p38 MAPK, -S6, -p90RSK and -p53 West Pico were mixed into a PathScan® cocktail (Cell Signaling). […]

EBV positive BL cells = conditions: cited from earlier work
[6] = human gammaherpesvirus 4, read-out: EC50 values
[7] = Mutul-Hp-Luc cells, up to 2 mM NaB

COC(=O)c1ccccc1NC(=O)N1CCc2c([nH]c3ccc(Cl)cc23)C1c1ccc(OC)cc1 (centres unmarked) [Compound 10]
EC50 (Mutul-Hp-Luc cells [1]; human gammaherpesvirus 4, 48 h): < 500 nM
EC50 (Mutul-Hp-Luc cells [1]; [6]): 50 to 200 nM

COc1ccc(C2NCCc3c2[nH]c2ccc(Cl)cc32)cc1 (centres unmarked) [Compound 11]
EC50 (Mutul-Hp-Luc cells [1]; human gammaherpesvirus 4, 48 h): < 500 nM

COc1ccc(C2c3[nH]c4ccc(Cl)cc4c3CCN2C(=O)c2cccc(OC)c2)cc1 (centres unmarked) [Compound 12]
EC50 (Mutul-Hp-Luc cells [1]; human gammaherpesvirus 4, 48 h): < 500 nM
EC50 (Mutul-Hp-Luc cells [1]; [6]): 50 to 200 nM

COc1ccc(C2c3[nH]c4ccc(Cl)cc4c3CCN2C(=O)c2ccccc2F)cc1 (centres unmarked) [Compound 13]
EC50 (Mutul-Hp-Luc cells [1]; human gammaherpesvirus 4, 48 h): > 500 nM

COc1ccc(C2c3[nH]c4ccc(Cl)cc4c3CCN2C(=O)c2ccccc2Cl)cc1 (centres unmarked) [Compound 14]
EC50 (Mutul-Hp-Luc cells [1]; human gammaherpesvirus 4, 48 h): > 500 nM

COc1ccc(C2c3[nH]c4ccc(Cl)cc4c3CCN2C(=O)c2c(Cl)cccc2Cl)cc1 (centres unmarked) [Compound 15]
EC50 (Mutul-Hp-Luc cells [1]; human gammaherpesvirus 4, 48 h): > 500 nM

COc1ccc(C2c3[nH]c4ccc(Cl)cc4c3CCN2C(=O)c2ccccc2C(F)(F)F)cc1 (centres unmarked) [Compound 16]
EC50 (Mutul-Hp-Luc cells [1]; human gammaherpesvirus 4, 48 h): > 500 nM

COc1ccc(C2c3[nH]c4ccc(Cl)cc4c3CCN2C(=O)c2ccccc2OC)cc1 (centres unmarked) [Compound 17]
EC50 (Mutul-Hp-Luc cells [1]; human gammaherpesvirus 4, 48 h): > 500 nM

COc1ccc(C2c3[nH]c4ccc(Cl)cc4c3CCN2C(=O)c2ccc(F)cc2)cc1 (centres unmarked) [Compound 18]
EC50 (Mutul-Hp-Luc cells [1]; human gammaherpesvirus 4, 48 h): > 500 nM

COc1ccc(C2c3[nH]c4ccc(Cl)cc4c3CCN2C(=O)c2ccc(Cl)cc2)cc1 (centres unmarked) [Compound 19]
EC50 (Mutul-Hp-Luc cells [1]; human gammaherpesvirus 4, 48 h): < 500 nM

COc1ccc(C2c3[nH]c4ccc(Cl)cc4c3CCN2C(=O)c2ccc(C(F)(F)F)cc2)cc1 (centres unmarked) [Compound 20]
EC50 (Mutul-Hp-Luc cells [1]; human gammaherpesvirus 4, 48 h): < 500 nM

COc1ccc(C(=O)N2CCc3c([nH]c4ccc(Cl)cc34)C2c2ccc(OC)cc2)cc1 (centres unmarked) [Compound 21]
EC50 (Mutul-Hp-Luc cells [1]; human gammaherpesvirus 4, 48 h): < 500 nM
EC50 (Mutul-Hp-Luc cells [1]; [6]): 50 to 200 nM

COc1ccc(C2c3c(c4cc(Cl)ccc4n3C(=O)c3ccc(F)cc3)CCN2C(=O)c2ccc(F)cc2)cc1 (centres unmarked) [Compound 22]
EC50 (Mutul-Hp-Luc cells [1]; human gammaherpesvirus 4, 48 h): < 500 nM
EC50 (Mutul-Hp-Luc cells [1]; [6]): 50 to 200 nM

COc1ccc(C2c3c(c4cc(Cl)ccc4n3C(=O)c3ccc(Cl)cc3)CCN2C(=O)c2ccc(F)cc2)cc1 (centres unmarked) [Compound 23]
EC50 (Mutul-Hp-Luc cells [1]; human gammaherpesvirus 4, 48 h): > 500 nM

COc1ccc(C2c3[nH]c4ccc(Cl)cc4c3CCN2S(=O)(=O)c2ccccc2OC)cc1 (centres unmarked) [Compound 25]
EC50 (Mutul-Hp-Luc cells [1]; human gammaherpesvirus 4, 48 h): > 500 nM

COc1ccc(C2c3[nH]c4ccc(Cl)cc4c3CCN2S(=O)(=O)c2ccc(OC)cc2)cc1 (centres unmarked) [Compound 26]
EC50 (Mutul-Hp-Luc cells [1]; human gammaherpesvirus 4, 48 h): > 500 nM

Nc1nc(O)c2ncn(COC(CO)CO)c2n1 [GCV, gancyclovir]
reduction of cell viability as single agent (Mutul cells): −10%

CCCC(=O)[O-].[Na+] [NaB, sodium butyrate]
cell viability on longer exposure (Mutul-Hp-Luc cells [2]; 2 mM NaB, longer periods than 48 h): loss of cell viability
cell toxicity (Mutul-Hp-Luc cells [2]; [7]): relatively low cell toxicity
signal-to-background (Mutul-Hp-Luc cells [2]; [7]): 20-40 fold
luciferase response to NaB (Mutul-Hp-Luc cells [2]; pHEBO-Hp-Luc in Mutul cells, 2 mM NaB vs DMSO): > 20 fold
synergy with GCV on killing EBV-positive cells (EBV positive Mutul cells; Mutul cells, combination with 10 μg/mL GCV): did not synergize with GCV
toxicity to cells (EBV positive Mutul cells; with or without GCV, daily resazurin): toxic to cells regardless of EBV positive status
pharmacokinetics [3]: unsuitable pharmacokinetics
concentrations required to trigger the latent to lytic switch (latent EBV): millimolar concentrations
acetylation of histone H3 [4]: caused histone acetylation in both cell lines

CCCCCCCCCCCCCC(=O)O[C@@H]1[C@@H](C)[C@@]2(O)[C@@H](C=C(CO)C[C@]3(O)C(=O)C(C)=C[C@@H]23)[C@@H]2C(C)(C)[C@]12OC(C)=O [TPA, 12-O-tetradecanoyl phorbol-13-acetate]
phosphorylation of p38 MAPK, S6, p90RSK and p53 [5]: increase in phosphorylation

CC(C)C[C@H](NC(=O)[C@H](Cc1ccccc1)NC(=O)c1cnccn1)B(O)O [bortezomib]
activation of latent EBV (EBV positive BL cells): activator of latent EBV in a limited number of EBV positive BL cells

arginine butyrate
efficacy in clinical trial [3]: efficacious
tolerability in clinical trial [3]: not tolerated due to toxicity
concentrations required to trigger the latent to lytic switch (latent EBV): millimolar concentrations
